Results from US8557800B2, “Sphingosine kinase inhibitors” (Apogee Biotechnology Corporation, priority 2005, dated 2013).

What was measured:
[1] = system: recombinant human SK; experiment: Inhibition of recombinant human SK, LC/MS/MS assay; assay type: biochemical; conditions: 6 μg/ml compound
Outline: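 Enzyme incubated with unlabeled sphingosine and ATP (1 mM, as in the radiometric format) for 30 min, then stopped and extracted with acetonitrile. S1P quantified by C8 reverse-phase HPLC–MS/MS against C17 sphingosine and C17 S1P internal standards using calibration curves.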

[2] = system: MCF-10A non-transformed human breast epithelial cells; experiment: Cytotoxicity, SRB binding assay; assay type: cell-based; conditions: inhibition of cell proliferation, 48 h, read-out: MCF-10A IC50
Outline: (§1)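 Cells exposed to varying compound doses for 48 h, then survival measured by sulforhodamine B staining. IC50 is the concentration giving 50% proliferation inhibition, in μM, as mean±sd of replicate trials.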

[3] = system: MCF-7 human breast adenocarcinoma cells; experiment: Cytotoxicity, SRB binding assay; assay type: cell-based; conditions: MCF7, inhibition of cell proliferation, 48 h, read-out: MCF-7 IC50
Outline: as §1

[4] = system: mouse JC mammary adenocarcimona cell line growing subcutaneously in Balb/c mice; conditions: JC tumor model, intraperitoneal (ip) or oral (po) administration
Procedure: The antitumor activity of the representative SK inhibitors were evaluated using a syngeneic tumor model that uses the mouse JC mammary adenocarcimona cell line growing subcutaneously in immunocompetent Balb/c mice (Lee et al., 2003, Oncol Res 14: 49).
In FIG. 1, Balb/c mice, 6-8 weeks old, were injected subcutaneously with 10^6 JC cells suspended in phosphate-buffered saline. The SK inhibitors Compounds 62 and 57 were dissolved in PEG400 and administered to mice every-other day at a dose of 100 mg/kg. Body weights and tumor volumes were monitored daily. In FIG. 1, tumor growth is expressed as the tumor volume relative to day 1 for each animal.

[5] = system: mice, multiple cycles of DSS-induced inflammation; experiment: Chronic DSS-colitis model (35-day); assay type: in vivo, mouse
Procedure: FIG. 13. Effects of Compound 62 on the DAI in the chronic DSS-colitis model. Mice received 2 cycles (7 days per cycle) of DSS (1.5% cycle 1 and 1% cycle 2), 2 cycles of normal drinking water and were randomized by DAI on Day 28 into groups of 8 mice. The mice were then treated as follows: No DSS (▪)—normal drinking water and orally dosed with PEG400 every day for 7 days (water control); DSS alone (▴)—drinking water containing 1.5% DSS and orally dosed with PEG daily for 7 days; DSS+Compound 62 (▾)—drinking water containing 1.5% DSS and orally dosed with Compound 62 (50 mg/kg) every day for 7 days; DSS+Dipentum (♦)—drinking water containing 1.5% DSS and orally dosed with Dipentum (50 mg/kg). *p<0.001 versus No DSS group.
A 35-day model of IBD was used to evaluate the effectiveness of the SK inhibitors in mice that experience multiple cycles of DSS-induced inflammation. This chronic model is similar to the acute model, except that the DSS concentration in the drinking water is lower and animals receive periodic exposure to DSS (DSS on days 1-7, water on Days 8-13, DSS on day 14-21, water on Days 22-27 and then DSS until the completion of the study on Day 35). In these experiments, treatment of the mice with an SK inhibitor or Dipentum began on Day 28 and continued daily until the completion of the study. The DAI index was monitored every other day until Day 28 and then daily until Day 35. Animals were sacrificed on Day 35, and changes in the colon length and cytokine profiles were measured.

[6] = system: C57BL/6 mice, DSS model of IBD; experiment: Acute DSS-colitis model; assay type: in vivo, mouse; conditions: 2% DSS, 50 mg/kg oral daily
Procedure: We have conducted experiments with SK inhibitors using the dextran sulfate sodium (DSS) model of IBD. In these experiments, male C57BL/6 mice were provided with standard rodent diet and water ad libitum. After their acclimation, the animals were randomly divided into groups of 5 or 6 for DSS (40,000 MW from ICN Biomedicals, Inc., Aurora, Ohio)—and drug-treatment. The SK inhibitors were dissolved in PEG400, and given once daily by oral gavage in a volume of 0.1 mL per dose. Dipentum, an FDA-approved anti-colitis drug whose active ingredient, olsalazine, is converted to 5-aminosalicylic acid in vivo, was used as a positive control. The mice were given normal drinking water or 2% DSS and treated orally with an SK inhibitor or Dipentum at a dose of 50 mk/kg daily. The body weight of each animal was measured each day, and the Disease Activity Index (DAI) was scored for each animal on Days 4-6. On Day 6, the animals were sacrificed by cervical dislocation and the entire colon was removed and measured to the nearest 0.1 cm. Portions of the colons were then fixed, sectioned and their histologies were assessed on a blinded basis to determine their Histology Score. Other portions of the colons were used for biochemical analyses of inflammation markers.

Compound | Recombinant SK (% inhibition) [1] [%] | IC50 [2] [µM] | IC50 [3] [µM] | other results
O=C(NCc1ccccc1)C12CC3CC(C1)CC(c1ccc(Cl)cc1)(C3)C2 [Compound 12, 3-(4-Chloro-phenyl)-adamantane-1-carboxylic acid benzylamide] | 36 | 99 | 11 | –
CC(C)(C)c1ccc(CNC(=O)C23CC4CC(C2)CC(c2ccc(Cl)cc2)(C4)C3)cc1 [Compound 13, 3-(4-Chloro-phenyl)-adamantane-1-carboxylic acid 4-tert-butyl-benzylamide] | 78 | 115 | 51 | –
CC(NC(=O)C12CC3CC(C1)CC(c1ccc(Cl)cc1)(C3)C2)c1ccc(Br)cc1 (stereo not drawn) [Compound 29, 3-(4-Chloro-phenyl)-adamantane-1-carboxylic acid [1-(4-bromo-phenyl)-ethyl]-amide] | 55 | 106 | 7 | –
O=C(NCCc1ccccc1)C12CC3CC(C1)CC(c1ccc(Cl)cc1)(C3)C2 [Compound 37, 3-(4-Chloro-phenyl)-adamantane-1-carboxylic acid phenethyl-amide] | 24 | 127 | 5 | –
O=C(NCCc1ccc(F)cc1)C12CC3CC(C1)CC(c1ccc(Cl)cc1)(C3)C2 [Compound 38, 3-(4-Chloro-phenyl)-adamantane-1-carboxylic acid [2-(4-fluoro-phenyl)-ethyl]-amide] | 40 | 40 | 9 | –
O=C(NCCc1ccc(Br)cc1)C12CC3CC(C1)CC(c1ccc(Cl)cc1)(C3)C2 [Compound 39, 3-(4-Chloro-phenyl)-adamantane-1-carboxylic acid [2-(4-bromo-phenyl)-ethyl]-amide] | 19 | 106 | 15 | –
O=C(NCCc1ccc(O)cc1)C12CC3CC(C1)CC(c1ccc(Cl)cc1)(C3)C2 [Compound 40, 3-(4-Chloro-phenyl)-adamantane-1-carboxylic acid [2-(4-hydroxy-phenyl)-ethyl]-amide] | 100 | 37 | 6 | –
O=C(NCCc1ccc(O)c(O)c1)C12CC3CC(C1)CC(c1ccc(Cl)cc1)(C3)C2 [Compound 44, 3-(4-Chloro-phenyl)-adamantane-1-carboxylic acid [2-(3,4-dihydroxy-phenyl)-ethyl]-amide] | – | 9 | 6 | In vivo activity [4]: active - ip
CN1CCN(NC(=O)C23CC4CC(C2)CC(c2ccc(Cl)cc2)(C4)C3)CC1 [Compound 52, 3-(4-Chloro-phenyl)-adamantane-1-carboxylic acid (4-methyl-piperazin-1-yl)-amide] | 54 | 15 | 10 | –
O=C(NCCN1CCOCC1)C12CC3CC(C1)CC(c1ccc(Cl)cc1)(C3)C2 [Compound 58, 3-(4-Chloro-phenyl)-adamantane-1-carboxylic acid (2-morpholin-4-yl-ethyl)-amide] | 67 | 36 | 20 | –
O=C(NCCc1ccncc1)C12CC3CC(C1)CC(c1ccc(Cl)cc1)(C3)C2 [Compound 64, 3-(4-Chloro-phenyl)-adamantane-1-carboxylic acid (2-pyridin-4-yl-ethyl)-amide] | 41 | 20 | 8 | –
Cc1cc2cc(NC(=O)C34CC5CC(C3)CC(c3ccc(Cl)cc3)(C5)C4)ccc2[nH]1 [Compound 66, 3-(4-Chloro-phenyl)-adamantane-1-carboxylic acid (2-methyl-1H-indol-5-yl)-amide] | 92 | 53 | 19 | –
CCn1c2ccccc2c2cc(NC(=O)C34CC5CC(C3)CC(c3ccc(Cl)cc3)(C5)C4)ccc21 [Compound 68, 3-(4-Chloro-phenyl)-adamantane-1-carboxylic acid (9-ethyl-9H-carbazol-3-yl)-amide] | 17 | 104 | 54 | –
O=C(Nc1nc(-c2ccc(Cl)cc2)cs1)C12CC3CC(CC(C3)C1)C2 [Compound 69, Adamantane-1-carboxylic acid [4-(4-chloro-phenyl)-thiazol-2-yl]-amide] | 40 | 106 | 30 | –
O=C(Nc1nc(-c2ccc(Cl)cc2)cs1)C12CC3CC(C1)CC(c1ccc(Cl)cc1)(C3)C2 [Compound 70, 3-(4-Chloro-phenyl)-adamantane-1-carboxylic acid [4-(4-chloro-phenyl)-thiazol-2-yl]-amide] | 33 | 103 | 7 | –
O=C(Nc1nc2ccccc2s1)C12CC3CC(C1)CC(c1ccc(Cl)cc1)(C3)C2 [Compound 71, 3-(4-Chloro-phenyl)-adamantane-1-carboxylic acid benzothiazol-2-ylamide] | 27 | 118 | 21 | –
O=C(Nc1nc2cc(Cl)ccc2o1)C12CC3CC(C1)CC(c1ccc(Cl)cc1)(C3)C2 [Compound 72, 3-(4-Chloro-phenyl)-adamantane-1-carboxylic acid (5-chloro-benzooxazol-2-yl)-amide] | 14 | 6 | 2 | –
Clc1ccc(C23CC4CC(CC(CNCCN5CCOCC5)(C4)C2)C3)cc1 [Compound 87, [3-(4-Chloro-phenyl)-adamantan-1-ylmethyl]-(2-morpholin-4-yl-ethyl)-amine] | 75 | 33 | 38 | –
Clc1ccc(-c2cnc(NCC34CC5CC(C3)CC(c3ccc(Cl)cc3)(C5)C4)s2)cc1 [Compound 90, [3-(4-Chloro-phenyl)-adamantan-1-ylmethyl]-[5-(4-chloro-phenyl)-thiazol-2-yl]-amine] | 26 | 107 | 96 | –
CCn1c2ccccc2c2cc(NC(C)C34CC5CC(CC(c6ccc(Cl)cc6)(C5)C3)C4)ccc21 (stereo not drawn) [Compound 114, {1-[3-(4-Chloro-phenyl)-adamantan-1-yl]-ethyl}-(9-ethyl-9H-carbazol-3-yl)-amine] | 33 | 9 | 55 | –
O=C(O)c1cc(/N=N/c2ccc(O)c(C(=O)O)c2)ccc1O [Dipentum, olsalazine, reference compound] | – | – | – | colon length ([5]; 50 mg/kg oral daily Day 28-35, DSS alone 4.9±0.2, water 7.8±0.3): 6.1±0.2 cm; increase in DAI ([5]; 50 mg/kg oral daily from Day 28 to Day 35, third DSS exposure): significantly suppressed; serum level of IL-6 ([5]; at sacrifice, Day 35): reduced; colon levels of pro-inflammatory cytokines TNFα, IL-1β, IFN-γ and IL-6 ([5]; treated during the final DSS cycle): equivalent to the DSS-alone group; elevations of colon pro-inflammatory proteins IFN-γ, IL-1β, IL-6 and TNFα [6]: attenuated; increase in colon myeloperoxidase (MPO) activity [6]: markedly attenuated; Histology Score vs DSS-alone animals ([6]; Day 6): consistently lower; colon length ([6]; Day 6): intermediate length; Disease Activity Index (intensity of IBD manifestations) ([6]; Days 4-6): reduced
